# Patent US7018839B2 (priority 1996, dated 2006)
# No end group written: not given here.
# Experiments:
# [1] = test system: hippocampal cells in organotypic cultures; test: Organotypic hippocampal tissue culture toxicity (trypan blue, LDH, AChE immunocytochemistry); assay type: cell-based, rats; settings: for cellular damage in hippocampal sections compared to control samples: semi-acute application for 1 hour, AChE-peptide and/or NMDA
# Protocol: The organotype tissue culture technique requires postnatal (day 5–7) rats given terminal anaesthesia followed by decapitation. Sections of hippocampus, 400 μm thick, are prepared and then plated on a plasma/thrombin clot. A serum-based media is added to these cultures, which can then be maintained at constant temperature (35° C.) for up to 21 days. After each study, cultures are stained with trypan blue to assess cell viability, in addition, after every removal of serum media, cultures are assayed for lactate dehydrogenase (LDH—a soluble cytoplasmic enzyme used as an index of cellular damage).
# Following chronic studies (cultures are maintained for 21 days and treated with AChE-peptide and/or NMDA every 3–4 days), cultured cells are immunocytochemically stained for acetylcholinesterase in order to assess what action, if any, the AChE-peptide has on cell number.
# [2] = test system: neurons in the substantia nigra
# anti-peptide antibody = test: Competition assay for binding of antibody to immobilised AChE-peptide; set-up: species or system Rabbits; settings: competitor preincubated with antibody in solution; APP and BuChE peptide at even excessive doses
# Protocol: In order to be sure that the antibody recognition of peptides occurs without the possible distortion due to the binding of the peptide to a charged plastic surface, an assay was used in which the critical interaction is studied in solution. […] An aliquot of the antibody was preincubated with potential competitors for binding to the AChE-peptide before presenting the resulting mixture to the peptide bound to the well.
# substantia nigra = test: Behavioural studies: infusion into one substantia nigra, amphetamine challenge, circling; assay type: in vivo, rats; settings: infused unilaterally into the substantia nigra
# Protocol: In these experiments, rats were chronically implanted with a cannula in one substantia nigra and left to recover. After a period of about 3 days, they were infused with either a saline control solution, or a solution containing the 14-mer AChE peptide of the invention at a dose of 1 μl of 10^−5M. After a single infusion, they were challenged daily with a systemic application of amphetamine for the subsequent 10 days.
compound,measurement,setting,value
"CN[C@H](CC(=O)O)C(=O)O [NMDA, N-methyl-D-aspartate, reference compound]",cellular damage in hippocampal sections compared to control samples,[1],extensive cellular damage
AEFHRWSSYMVHWK [AChE peptide],LDH assays (biochemical studies),"[1]; chronic cultures, 21 days, treated every 3–4 days",support the proposed toxic action
same,toxicity detected histochemically,[1]; culture period of three weeks,Toxic effects are also detectable
same,interaction with excito-toxic effects of NMDA,[1]; organotypic cultures,synergistic
same,time of application until effect can be seen,[1]; organotypic cultures,one
same,toxic effects on hippocampal cells,[1]; organotypic cultures,direct toxic effects
same,cellular damage in hippocampal sections compared to control samples,[1],extensive cellular damage
same,state of the cell on application of NMDA after peptide treatment,[2],severe metabolic stress of the cell
AGFHRWNNYMMDWK [BuChE peptide],competition for the binding of antibody to immobilised AChE-peptide,anti-peptide antibody,could not compete
same,calcium channel opening activity,[2],inactive
same,effect of the fragment alone on calcium potentials,[2],without corresponding effect
same,effect on the activity of the AChE fragment,[2],inactive
acetylcholinesterase [AChE],circling behaviour (activity of the nigrostriatal pathway),substantia nigra,long-term increase in circling behaviour
recombinant AChE,competition for the binding of antibody to immobilised AChE-peptide,anti-peptide antibody,effective competitor
